Assay results as given in patent US10994015B2, “EGFR proteolysis targeting chimeric molecules and associated methods of use” (Arvinas Operations, Inc., priority 2016, dated 2021).
pIC50: −log10 of the molar value.

How the values were obtained:
EGFR Exon 20 ASV (HeLa*) = EGFR Exon 20 ASV (HeLa*) (Homo sapiens (Human), UniProt P00533, DUP767-769); experiment: EGFR protein degradation assay (Western blot); type: cell-based; conditions: 72 hours, 300 nM to 10 nM
[1] = target: EGFR-wt (MDA-MB-231 or MCF7 or A549 or OVCAR8) (Homo sapiens (Human), UniProt P00533); experiment: EGFR protein degradation assay (Western blot); type: cell-based; conditions: 72 hours, 300 nM to 10 nM
Procedure, shortened: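 EGFR degradation was assessed by Western blot. Cells expressing the appropriate EGFR were seeded in 6-well plates (300,000 cells per well) and adhered overnight. Media was removed, cells were washed with cold phosphate-buffered saline, scraped into 400 μl Cell Signaling lysis buffer plus protease inhibitor cocktail, and spun once at 10 000 rpm for 10 minutes. After BCA quantification, loading buffer and reducing agent were added. Gels loaded with 10 μg protein ran at 165V for 2 hours, and bands were visualized by chemiluminescence.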

EGFR Exon20NPG = EGFR Exon20NPG (Homo sapiens (Human), UniProt P00533, INS770NPG); experiment: TR-FRET assay for ERBB kinases; type: biochemical; conditions: geometric mean if measured more than once
Procedure, shortened: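 Phosphorylation of fluorescein-labeled poly-GluTyr read as TR-FRET using Tb-pY20 antibody after EDTA stop, with 340 nm excitation. Kinase reaction ran 10 min at room temperature following 10 min compound pre-incubation; substrate mix held 3 mM ATP and 30 µM peptide before addition. Buffer was HEPES pH 7.5.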

EGFR L858R/T790M/C797S = EGFR L858R/T790M/C797S (Homo sapiens (Human), UniProt P00533, C797S/L858R/T790M); experiment: TR-FRET assay for ERBB kinases; type: biochemical; conditions: geometric mean if measured more than once
Procedure, shortened: (§1)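 Detection: LanthaScreen Tb-pY20 antibody with EDTA, emission at 490 and 520 nm after 340 nm excitation. Reaction: 10 min at room temperature following 10 min compound–enzyme pre-incubation, started by a substrate mix of 3 mM ATP and 30 uM fluorescein-poly-GluTyr in HEPES pH 7.5.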

EGFR WT = EGFR WT (Homo sapiens (Human), UniProt P00533); experiment: TR-FRET assay for ERBB kinases; type: biochemical; conditions: geometric mean if measured more than once
Procedure, shortened: as §1

EGFR L858R/T790M = EGFR L858R/T790M (Homo sapiens (Human), UniProt P00533, L858R/T790M); experiment: TR-FRET assay for ERBB kinases; type: biochemical; conditions: geometric mean if measured more than once
Procedure, shortened: as §1

Chain of EGFR L858R/T790M (P00533 25-1210 T790M/L858R): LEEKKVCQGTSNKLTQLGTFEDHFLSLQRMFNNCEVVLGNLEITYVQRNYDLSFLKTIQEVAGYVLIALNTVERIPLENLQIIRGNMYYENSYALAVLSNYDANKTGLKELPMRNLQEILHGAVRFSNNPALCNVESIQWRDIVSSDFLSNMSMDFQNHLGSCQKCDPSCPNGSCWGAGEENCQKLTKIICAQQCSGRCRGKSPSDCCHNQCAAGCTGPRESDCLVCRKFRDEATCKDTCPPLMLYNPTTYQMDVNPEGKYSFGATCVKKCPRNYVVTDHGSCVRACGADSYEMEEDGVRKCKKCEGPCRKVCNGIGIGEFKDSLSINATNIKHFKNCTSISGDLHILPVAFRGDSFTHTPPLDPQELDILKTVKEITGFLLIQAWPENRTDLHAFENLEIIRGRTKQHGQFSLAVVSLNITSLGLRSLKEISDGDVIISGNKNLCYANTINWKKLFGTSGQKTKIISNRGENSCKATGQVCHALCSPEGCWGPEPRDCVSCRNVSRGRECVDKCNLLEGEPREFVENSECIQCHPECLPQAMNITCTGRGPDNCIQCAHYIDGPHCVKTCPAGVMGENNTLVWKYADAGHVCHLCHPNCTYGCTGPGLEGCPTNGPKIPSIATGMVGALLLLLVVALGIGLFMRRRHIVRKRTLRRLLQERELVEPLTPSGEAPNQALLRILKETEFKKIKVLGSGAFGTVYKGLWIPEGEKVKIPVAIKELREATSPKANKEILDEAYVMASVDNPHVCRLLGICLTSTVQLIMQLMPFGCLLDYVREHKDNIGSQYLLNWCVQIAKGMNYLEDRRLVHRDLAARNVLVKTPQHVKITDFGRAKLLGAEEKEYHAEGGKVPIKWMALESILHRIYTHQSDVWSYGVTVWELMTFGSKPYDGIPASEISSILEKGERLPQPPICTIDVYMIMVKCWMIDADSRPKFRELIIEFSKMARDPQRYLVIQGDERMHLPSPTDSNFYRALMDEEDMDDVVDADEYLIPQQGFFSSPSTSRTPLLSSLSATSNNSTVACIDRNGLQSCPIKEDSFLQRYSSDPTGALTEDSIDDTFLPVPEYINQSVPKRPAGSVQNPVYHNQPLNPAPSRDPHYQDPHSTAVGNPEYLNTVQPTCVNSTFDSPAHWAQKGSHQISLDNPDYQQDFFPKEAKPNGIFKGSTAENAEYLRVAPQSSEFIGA
Chain of EGFR Exon 20 ASV (HeLa*) (P00533 other isoform, or with tags, fused parts or gaps dup 767-769): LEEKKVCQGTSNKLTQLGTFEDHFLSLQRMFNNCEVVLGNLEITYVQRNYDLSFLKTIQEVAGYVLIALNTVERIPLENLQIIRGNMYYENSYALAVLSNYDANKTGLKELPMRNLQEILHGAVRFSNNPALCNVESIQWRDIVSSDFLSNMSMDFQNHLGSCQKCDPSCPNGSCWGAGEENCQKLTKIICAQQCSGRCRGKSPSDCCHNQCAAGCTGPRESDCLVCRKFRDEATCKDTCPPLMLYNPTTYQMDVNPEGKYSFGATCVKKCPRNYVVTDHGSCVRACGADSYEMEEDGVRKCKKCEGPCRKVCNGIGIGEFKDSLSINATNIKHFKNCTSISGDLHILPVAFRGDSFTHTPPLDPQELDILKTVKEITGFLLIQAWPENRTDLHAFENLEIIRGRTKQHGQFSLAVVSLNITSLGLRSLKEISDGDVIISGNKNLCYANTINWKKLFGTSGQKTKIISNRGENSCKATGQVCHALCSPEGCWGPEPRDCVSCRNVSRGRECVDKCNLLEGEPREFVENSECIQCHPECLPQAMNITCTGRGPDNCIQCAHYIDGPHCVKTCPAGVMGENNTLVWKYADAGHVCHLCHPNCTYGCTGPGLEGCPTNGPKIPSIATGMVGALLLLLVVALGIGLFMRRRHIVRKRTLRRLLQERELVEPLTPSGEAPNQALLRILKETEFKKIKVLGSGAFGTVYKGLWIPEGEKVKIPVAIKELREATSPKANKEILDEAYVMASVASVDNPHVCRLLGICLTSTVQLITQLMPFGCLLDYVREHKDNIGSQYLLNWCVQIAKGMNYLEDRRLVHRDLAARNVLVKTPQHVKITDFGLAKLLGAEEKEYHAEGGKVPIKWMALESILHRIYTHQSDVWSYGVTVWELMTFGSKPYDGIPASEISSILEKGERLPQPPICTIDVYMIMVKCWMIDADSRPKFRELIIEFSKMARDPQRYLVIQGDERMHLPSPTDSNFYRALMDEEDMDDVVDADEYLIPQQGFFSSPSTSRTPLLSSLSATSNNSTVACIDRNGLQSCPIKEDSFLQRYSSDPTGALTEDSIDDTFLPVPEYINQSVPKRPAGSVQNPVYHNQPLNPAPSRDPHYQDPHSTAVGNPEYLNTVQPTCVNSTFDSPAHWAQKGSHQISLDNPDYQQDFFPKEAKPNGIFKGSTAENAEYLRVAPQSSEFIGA
Chain of EGFR WT (P00533 25-1210): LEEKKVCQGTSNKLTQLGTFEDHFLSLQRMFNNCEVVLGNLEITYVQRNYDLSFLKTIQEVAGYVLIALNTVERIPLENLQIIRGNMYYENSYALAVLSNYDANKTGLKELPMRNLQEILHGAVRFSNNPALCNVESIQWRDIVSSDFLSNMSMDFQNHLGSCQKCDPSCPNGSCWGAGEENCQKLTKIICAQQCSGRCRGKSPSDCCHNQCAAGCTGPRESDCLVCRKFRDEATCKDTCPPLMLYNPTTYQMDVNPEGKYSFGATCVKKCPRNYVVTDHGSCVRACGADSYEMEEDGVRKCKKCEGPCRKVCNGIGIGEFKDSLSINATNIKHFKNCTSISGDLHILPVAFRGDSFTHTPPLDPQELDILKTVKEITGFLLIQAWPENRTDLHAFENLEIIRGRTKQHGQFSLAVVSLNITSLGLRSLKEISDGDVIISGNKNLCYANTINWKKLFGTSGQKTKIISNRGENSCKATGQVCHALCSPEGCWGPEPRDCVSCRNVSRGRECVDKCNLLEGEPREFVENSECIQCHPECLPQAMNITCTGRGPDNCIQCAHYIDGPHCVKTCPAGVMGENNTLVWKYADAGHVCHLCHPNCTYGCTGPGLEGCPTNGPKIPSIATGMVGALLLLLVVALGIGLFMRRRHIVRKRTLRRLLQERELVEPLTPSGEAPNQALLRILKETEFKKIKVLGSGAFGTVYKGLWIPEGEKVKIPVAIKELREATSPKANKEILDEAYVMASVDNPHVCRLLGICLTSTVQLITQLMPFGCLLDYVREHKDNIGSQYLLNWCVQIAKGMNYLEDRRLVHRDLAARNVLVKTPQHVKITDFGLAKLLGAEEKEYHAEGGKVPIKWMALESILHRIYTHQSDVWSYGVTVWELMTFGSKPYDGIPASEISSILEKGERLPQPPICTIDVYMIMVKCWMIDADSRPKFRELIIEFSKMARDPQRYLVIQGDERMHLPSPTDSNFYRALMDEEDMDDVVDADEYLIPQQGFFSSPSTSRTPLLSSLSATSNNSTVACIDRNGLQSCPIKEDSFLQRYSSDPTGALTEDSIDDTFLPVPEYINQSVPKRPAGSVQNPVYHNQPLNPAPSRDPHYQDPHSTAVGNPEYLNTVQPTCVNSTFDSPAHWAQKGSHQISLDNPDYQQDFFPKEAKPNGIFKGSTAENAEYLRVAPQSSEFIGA
Chain of EGFR-wt (MDA-MB-231 or MCF7 or A549 or OVCAR8) (P00533 25-1210): as above

Row | SMILES | EGFR protein remaining, EGFR Exon 20 ASV (EGFR Exon 20 ASV (HeLa*)) | EGFR protein remaining, EGFR-wt [1] | pIC50 (EGFR Exon20NPG) | pIC50 (EGFR L858R/T790M/C797S) | pIC50 (EGFR WT) | pIC50 (EGFR L858R/T790M)
1 | Cc1ncsc1-c1ccc(CNC(=O)[C@@H]2C[C@@H](O)CN2C(=O)[C@H](C(C)C)N2Cc3ccccc3C2=O)c(OCCOCCOCCOCCN2CCN(Cc3ccc(-c4cc5c(NCc6ccccc6Cl)ncnc5[nH]4)cc3)CC2)c1 [compound 109] | C (>80% EGFR protein remaining after 72 hours of incubation with the test compound at a concentration of 300 nM) | C (>80% EGFR protein remaining after 72 hours of incubation with the test compound at a concentration of 300 nM) | 6.24 | 5.05 | 6.74 | 5.22
2 | Cc1ncsc1-c1ccc(CNC(=O)[C@@H]2C[C@@H](O)CN2C(=O)[C@H](C(C)C)N2Cc3ccccc3C2=O)c(OCCOCCN2CCN(Cc3ccc(-c4cc5c(NCc6ccccc6Cl)ncnc5[nH]4)cc3)CC2)c1 [compound 107] | C (>80% EGFR protein remaining after 72 hours of incubation with the test compound at a concentration of 300 nM) | C (>80% EGFR protein remaining after 72 hours of incubation with the test compound at a concentration of 300 nM) | 6.22 | 5.22 | 6.85 | 5.17
3 | Cc1ncsc1-c1ccc(CNC(=O)[C@@H]2C[C@@H](O)CN2C(=O)[C@H](C(C)C)N2Cc3ccccc3C2=O)c(OCCOCCOCCOCCOCCN2CCN(Cc3ccc(-c4cc5c(NCc6ccccc6Cl)ncnc5[nH]4)cc3)CC2)c1 [compound 110] | C (>80% EGFR protein remaining after 72 hours of incubation with the test compound at a concentration of 300 nM) | C (>80% EGFR protein remaining after 72 hours of incubation with the test compound at a concentration of 300 nM) | 5.74 | 4.92 | 6.11 | 5.07
4 | O=C1CCC(N2C(=O)c3ccc(OCCOCCOCCOCCOCCOCCN4CCN(Cc5ccc(C6Cc7c(NCc8ccccc8Cl)ncnc7N6)cc5)CC4)cc3C2=O)C(=O)N1 (stereo not drawn) [compound 105] | C (>80% EGFR protein remaining after 72 hours of incubation with the test compound at a concentration of 300 nM) | C (>80% EGFR protein remaining after 72 hours of incubation with the test compound at a concentration of 300 nM) | 6.09 | 4.62 | 6.01 | < 4.52
5 | O=C1CCC(N2C(=O)c3ccc(OCCN4CCN(Cc5ccc(C6Cc7c(NCc8ccccc8Cl)ncnc7N6)cc5)CC4)cc3C2=O)C(=O)N1 (stereo not drawn) [compound 101] | C (>80% EGFR protein remaining after 72 hours of incubation with the test compound at a concentration of 300 nM) | C (>80% EGFR protein remaining after 72 hours of incubation with the test compound at a concentration of 300 nM) | 7.16 | 5.44 | 7.92 | 5.47
6 | O=C1CCC(N2C(=O)c3ccc(OCCOCCOCCOCCOCCN4CCN(Cc5ccc(C6Cc7c(NCc8ccccc8Cl)ncnc7N6)cc5)CC4)cc3C2=O)C(=O)N1 (stereo not drawn) [compound 104] | C (>80% EGFR protein remaining after 72 hours of incubation with the test compound at a concentration of 300 nM) | C (>80% EGFR protein remaining after 72 hours of incubation with the test compound at a concentration of 300 nM) | 6.29 | 5.09 | 6.23 | 4.92
